Measurements from patent US10053455B2, “Diazaspiroalkaneone-substituted oxazole derivatives as spleen tyrosine kinase inhibitors” (AB SCIENCE, priority 2014, dated 2018).

Tests used:
SYK kinase = SYK kinase (Homo sapiens (Human), UniProt P43405); experiment: In vitro SYK inhibition assay (HTRF kinase assay); type: biochemical; details: read-out: Syk (IC50)
Protocol: SYK kinase was purified as a full length protein in a baculovirus system near homogeneity. All kinase assays were performed with the Kinase TK (tyrosine kinase) HTRF (Homogeneous Time Resolved Fluorescence) assay developed by Cisbio international. […] Reactions were initiated upon introduction of the enzyme and terminated with the addition of one reaction volume (25 μl) of HTRF detection buffer. Plates were incubated for one hour at room temperature and the time resolved Fluorescence resonance energy transfer signal was measured in a Pherastar FS microplate reader (BMG Labtech).
Most of the kinases tested in this study were cloned, expressed and purified in the facilities of the inventors. They were expressed either as N-terminus hexahistidine-, hexahistidine-asparagine- or GST-tagged enzymes in a baculovirus or in a Colibacille expression system. Remaining enzymes (JAKs) were purchased from Millipore or Proqinase. For each enzyme, steady state kinetic parameters were determined and validated with known inhibitors.
The analysis of the effect of compounds on kinase activity was assessed with the HTRF® KinEASE assay (Cisbio International), an immuno-assay based on the quantification of the level of phosphorylation of a biotinylated peptide substrate using anti-phospho-specific antibody labeled with Europium (Eu^3+) cryptate. This assay comprises two steps: —an enzymatic step, during which the peptide substrate, the kinase, ATP, Mg^2+ and/or Mn^2+ are incubated with varying concentration of drug (from 0 to 10 μM); —a detection step, at the end of the reaction (stopped by addition of EDTA which chelates Mg^2+), the antibody anti-phospho peptide-Eu^3+ (emission 620 nm) and streptavidin XL-665 (emission 665 nm) are added to the reaction mix. After incubation, the obtained signal is proportional to the concentration of phosphorylated peptide in the sample. All measurements were performed on a BMG Labtech Pherastar FS apparatus. Results are expressed in delta fluorescence (DF) unit defined as follow DF %=[(ratio−ratio blank)/(ratio blank)]*100, where ratio=(665 nm/620 nm)*10^4. Each experiment was performed in duplicate and repeated two or three times.

[1] = system: Salmonella typhimurium strain TA98; experiment: AMES mutagenic assay, TA98 strain
Protocol: Mutagenic activity of test compounds and their metabolites (produced by rat liver S9 fraction) was evaluated in the Salmonella typhimurium strains TA100 and TA98 according to the Ames assay (Toxicology in vitro, (2001), 15: 105-114). […] The results are expressed as a mutagenicity ratio in comparison to solvent controls.
The results are expressed as a ratio of the number of colonies over the number of colonies in the negative control (DMSO).

N#Cc1ccnc(Nc2cccc(-c3cnc(N4CCNC(=O)C45CC5)o3)c2)n1 [Compound 002, 2-{3-[2-(8-Oxo-4,7-diaza-spiro[2.5]oct-4-yl)-oxazol-5-yl]-phenylamino}-pyrimidine-4-carbonitrile]
IC50 (SYK kinase): < 500 nM

O=[N+]([O-])c1ccc2c(c1)Cc1ccccc1-2 [Compound 2-NF, 2-Nitrofluorene, reference compound]
Mean revertant colony counts ([1]; Salmonella typhimurium, 0.25 μg per well): 59.7
Ratio treated/solvent ([1]; TA98, absence of S-9, 0.25 μg per well (positive control)): 13.8

O=C1NCCN(c2ncc(-c3cc(CN4CCOCC4)cc(Nc4nccc(C(F)(F)F)n4)c3)o2)C12CC2 [Compound 003, 4-{5-[3-Morpholin-4-ylmethy1-5-(4-trifluoromethyl-pyrimidin-2-ylamino)-phenyl]-oxazol-2-yl}-4,7-diaza-spiro[2.5]octan-8-one]
IC50 (SYK kinase): < 500 nM

O=C1NCCN(c2ncc(-c3cc(Nc4nccc(-c5cccs5)n4)ccc3OCCN3CCOCC3)o2)C12CC2 [Compound 004, 4-{5-[2-(2-Morpholin-4-yl-ethoxy)-5-(4-thiophen-2-yl-pyrimidin-2-ylamino)-phenyl]-oxazol-2-yl}-4,7-diaza-spiro[2.5]octan-8-one]
IC50 (SYK kinase): < 500 nM

Cc1cc(Nc2nccc(C(F)(F)F)n2)cc(-c2cnc(N3CCNC(=O)C34CC4)o2)c1 [Compound 005, 4-{5-[3-Methy1-5-(4-trifluoromethyl-pyrimidin-2-ylamino)-phenyl]-oxazol-2-yl}-4,7-diaza-spiro[2.5]octan-8-one]
IC50 (SYK kinase): < 500 nM

Cc1ccnc(Nc2cc(CN3CCOCC3)cc(-c3cnc(N4CCNC(=O)C45CC5)o3)c2)n1 [Compound 006, 4-{5-[3-(4-Methyl-pyrimidin-2-ylamino)-5-morpholin-4-ylmethyl-phenyl]-oxazol-2-yl}-4,7-diaza-spiro[2.5]octan-8-one]
IC50 (SYK kinase): < 500 nM

CCc1ccnc(Nc2cccc(-c3cnc(N4CCNC(=O)C45CC5)o3)c2)n1 [Compound 007, 4-{5-[3-(4-Ethyl-pyrimidin-2-ylamino)-phenyl]-oxazol-2-yl}-4,7-diaza-spiro[2.5]octan-8-one]
IC50 (SYK kinase): < 500 nM

O=C1NCCN(c2ncc(-c3cccc(Nc4nccc(C(F)(F)F)n4)c3)o2)C12CC2 [Compound 008, 4-{5-[3-(4-Trifluoromethyl-pyrimidin-2-ylamino)-phenyl]-oxazol-2-yl}-4,7-diaza-spiro[2.5]octan-8-one]
IC50 (SYK kinase): < 500 nM

Cc1ccnc(Nc2cccc(-c3cnc(N4CCNC(=O)C45CCCC5)o3)c2)n1 [Compound 009, 6-{5-[3-(4-Methyl-pyrimidin-2-ylamino)-phenyl]-oxazol-2-yl}-6,9-diaza-spiro[4.5]decan-10-one]
IC50 (SYK kinase): < 500 nM

O=C1NCCN(c2ncc(-c3cccc(Nc4nccc(-c5ccccc5)n4)c3)o2)C12CC2 [Compound 010, 4-{5-[3-(4-Phenyl-pyrimidin-2-ylamino)-phenyl]-oxazol-2-yl}-4,7-diaza-spiro[2.5]octan-8-one]
IC50 (SYK kinase): < 500 nM

CC(C)c1ccnc(Nc2cccc(-c3cnc(N4CCNC(=O)C45CCC5)o3)c2)n1 [Compound 011, 5-{5-[3-(4-Isopropyl-pyrimidin-2-ylamino)-phenyl]-oxazol-2-yl}-5,8-diaza-spiro[3.5]non-9-one]
IC50 (SYK kinase): < 500 nM

Cc1ccnc(Nc2cccc(-c3cnc(N4CCNC(=O)C45CCC5)o3)c2)n1 [Compound 012, 5-{5-[3-(4-Methyl-pyrimidin-2-ylamino)-phenyl]-oxazol-2-yl}-5,8-diaza-spiro[3.5]nonan-9-one]
IC50 (SYK kinase): < 500 nM

CC(C)c1ccnc(Nc2cccc(-c3cnc(N4CCNC(=O)C45CC5)o3)c2)n1 [Compound 013, 4-{5-[3-(4-Isopropyl-pyrimidin-2-ylamino)-phenyl]-oxazol-2-yl}-4,7-diaza-spiro[2.5]octan-8-one]
IC50 (SYK kinase): < 500 nM

O=C1NCCN(c2ncc(-c3cccc(Nc4nccc(N5CCOCC5)n4)c3)o2)C12CC2 [Compound 014, 4-{5-[3-(4-Morpholin-4-yl-pyrimidin-2-ylamino)-phenyl]-oxazol-2-yl}-4,7-diaza-spiro[2.5]octan-8-one]
IC50 (SYK kinase): > 2000 nM
